Molecular target: T1, OR2AT4 (olfactory receptor 2AT4) (Homo sapiens, UniProt A6NND4)
T1 sequence (A6NND4 1-320): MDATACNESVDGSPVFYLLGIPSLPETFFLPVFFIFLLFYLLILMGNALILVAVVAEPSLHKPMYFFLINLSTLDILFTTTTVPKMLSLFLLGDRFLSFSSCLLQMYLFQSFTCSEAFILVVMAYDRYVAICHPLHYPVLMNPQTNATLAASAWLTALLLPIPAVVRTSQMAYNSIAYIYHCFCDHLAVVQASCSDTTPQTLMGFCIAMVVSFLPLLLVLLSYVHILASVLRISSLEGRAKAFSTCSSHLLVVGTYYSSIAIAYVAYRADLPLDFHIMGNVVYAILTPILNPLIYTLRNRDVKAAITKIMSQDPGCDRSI
Test: calcium imaging dose-response in K562 cells (endogenous receptor), blocked by antagonist Phenirat
Type: cell-based

EC50: 265 µM
SMILES: CC1=CCC(CCC(C)C(C)O)C1(C)C (stereo not shown) [Sandalore]

From publication PMC4979481, “Functional characterization of the ectopically expressed olfactory receptor 2AT4 in human myelogenous leukemia” (Cell Death Discovery, 2016)
